Data: patent US20220054494A1, “METHODS FOR TREATING BLADDER AND URETHRA DYSFUNCTION AND DISEASE” (University of Pittsburgh - Of the Commonwealth System of …, priority 2019, published 2022)
Entries after “also recorded” stand apart in the source; their conditions may differ.

How the values were obtained:
[1] = Jackson et al., J Pharmacol Exp Ther 2016; cited from earlier work
[2] = test system: deoxycorticosterone/salt-induced hypertension; conditions: chronic oral treatment of rats; Jackson et al. 2016; cited from earlier work
[3] = test system: aged rats; assay: Voiding analysis in metabolic cages, aged rats; assay type: in vivo, rat; conditions: aged rats; intravesical 5 μM forodesine plus 10 μM DEA-NONOate, 3 weeks of treatment; vs aged control rats
Protocol: Experimental design: Young (3 months of age) and aged (25 to 30 months of age) Fisher 344 rats were used in these experiments. Some of the aged Fisher 344 rats were treated with 8-AG (5 mg kg/day via drinking water) for 1 month.
Voiding analysis: Rats were placed in metabolic cages for 24 hr (once per week for the duration of the study). Voided urine was collected in cups attached to force displacement transducers (GRASS TECHNOLOGIES®, Warwick, R.I.) connected to a computer running WINDAQ™ data acquisition software (DATAQ™ Instruments Inc., Akron, Ohio). Data were averaged for 24 h, and voiding frequency, total voided volume, and volume per void were analyzed. Voiding frequency was calculated as the number of voiding events per hour during 24 h, and volume per void, which defines bladder capacity, was calculated as an average of the voids occurring during these periods.
Animals: Male and female Fisher 344 rats were employed (Charles River; Wilmington, Mass. and the NIA rodent colony). Some rats were young (3 months of age), some were aged (25-30 months of age), and others were aged and treated with oral 8-AG (5 mg/kg/day; 6 weeks). Under isoflurane anesthesia and using an aseptic technique, an incision was made into the lower abdomen and in the scapular area. Sterile PE50 tubing was threaded subcutaneously from the lower abdomen to the scapular area and connected to a one-channel vascular access button (Intech Laboratories, Plymouth Meeting, Pa.). In the abdomen, the tubing was inserted into the bladder and secured with a small purse-string suture. The incisions were closed, and the animals were allowed to recover for 7-10 days before further experimentation. Animals were divided into three groups. A control group of aged rats received daily infusions with 10 μM DEA-NONOate (SIGMA-ALDRICH®, St. Louis, Mo.) in sterile 0.9% saline. A second group received 100 μM 8-AG plus 10 μM DEA-NONOate in 0.9% saline, and a third group received 5 μM forodesine (SIGMA-ALDRICH®) plus 10 μM DEA-NONOate in 0.9% saline. Bladders were instilled via a catheter tether kit (Instech Laboratories) connected to a syringe pump for continuous infusion (rate 200 μl/min; 30 minutes/daily) for 3-6 weeks. The Institutional Animal Care and Use Committee approved all procedures. The investigation conforms to the Guide for the Care and Use of Laboratory Animals published by the US National Institutes of Health (NIH Publication No. 85-23, revised 1996).
Protocol 1: Young, aged, and 8-AG-treated aged rats were placed in metabolism cages for 24 hr once per week. The light cycle was from 7:00 AM to 7:00 PM, and food and water were provided ad libitum. Voided urine was collected in cups attached to force displacement transducers (GRASS TECHNOLOGIES®, Warwick, R.I.) that were connected to a computer running Windaq data acquisition software (DATAQ® Instruments I2nc., Akron, Ohio). Data were averaged for 24 h and analyzed for 12-h periods during the day (7:00 AM-7:00 PM) and night (7:00 PM-7:00 AM). Voiding frequency, total voided volume, and volume per void were analyzed. Voiding frequency was calculated as the number of voiding events per hour during 24 h and during the 12-h day and 12-h night periods. Volume per void, which defines bladder capacity, was calculated as an average of the voids occurring during these periods.
Voiding Analysis: Young, aged, and 8-AG-treated aged rats were placed in metabolic cages (24 hr; once per week) for the duration of the study. The light cycle was from 7:00 AM to 7:00 PM, and food and water were provided ad libitum. Voided urine was collected in cups attached to force displacement transducers (Grass Technologies, Warwick, R.I.) connected to a computer (Windaq data acquisition software DATAQ Instruments Inc., Akron, Ohio). Data were averaged for 24 h and analyzed for 12-h periods during the day (7:00 AM-7:00 PM) and night (7:00 PM-7:00 AM). Voiding frequency, total voided volume, and volume per void were analyzed. […]

[4] = test system: aged rats; assay: Voiding analysis in metabolic cages, aged rats; assay type: in vivo, rat; conditions: aged rats; intravesical 5 μM forodesine plus 10 μM DEA-NONOate, 3 weeks of treatment; vs aged control rats; remark: listed apart in the source

## Nc1nc2c(nc(N)n2[C@@H]2O[C@H](CO)[C@@H](O)[C@H]2O)c(=O)[nH]1 [8-aminoguanosine, 8-Aminoguanosine, reference compound]
[1]
  diuresis: induce
  glucosuria: induce
  natriuresis: induce
  potassium excretion: reduce
[2]
  development of deoxycorticosterone/salt-induced hypertension: attenuate

## O=c1[nH]cnc2c([C@@H]3N[C@H](CO)[C@@H](O)[C@H]3O)c[nH]c12 [forodesine, 7-[(2S,3S,4R,5R)-3,4-dihydroxy-5-(hydroxymethyl)pyrrolidin-2-yl]-3H,4H,5H-pyrrolo[3,2-d]pyrimidin-4-one, reference compound]
[3]
  voided volume: significant improvement; also recorded: significantly attenuates
  voiding frequency: significant improvement; also recorded: significantly attenuates
[4]
  inter-contraction interval: significant improvement; also recorded: significantly attenuates
